Earlier results in US20080287519A1, “Amorphous eletriptan hydrobromide and process for preparing it and other forms of eletriptan hydrobromide” (priority 2007, published 2008).

Key:
[1] = target: 5-HT1B receptor (Homo sapiens, UniProt P28222)
[2] = target: 5-HT1D receptor (Homo sapiens, UniProt P28221)
[3] = target: T1, 5-HT1F receptor (Homo sapiens, UniProt P30939)
T1 sequence (P30939 1-366): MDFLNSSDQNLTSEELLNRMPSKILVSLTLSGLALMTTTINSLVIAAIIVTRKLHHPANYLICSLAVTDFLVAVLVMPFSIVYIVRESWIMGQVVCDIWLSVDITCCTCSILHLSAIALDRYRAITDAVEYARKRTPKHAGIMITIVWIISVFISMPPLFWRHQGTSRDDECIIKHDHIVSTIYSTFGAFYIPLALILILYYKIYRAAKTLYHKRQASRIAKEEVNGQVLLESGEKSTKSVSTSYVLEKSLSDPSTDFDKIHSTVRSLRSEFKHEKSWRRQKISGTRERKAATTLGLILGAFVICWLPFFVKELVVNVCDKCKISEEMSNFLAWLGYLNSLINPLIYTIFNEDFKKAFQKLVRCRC

[4] = target: T2, 5-HT1A receptor (Homo sapiens, UniProt P08908)
T2 sequence (P08908 1-422): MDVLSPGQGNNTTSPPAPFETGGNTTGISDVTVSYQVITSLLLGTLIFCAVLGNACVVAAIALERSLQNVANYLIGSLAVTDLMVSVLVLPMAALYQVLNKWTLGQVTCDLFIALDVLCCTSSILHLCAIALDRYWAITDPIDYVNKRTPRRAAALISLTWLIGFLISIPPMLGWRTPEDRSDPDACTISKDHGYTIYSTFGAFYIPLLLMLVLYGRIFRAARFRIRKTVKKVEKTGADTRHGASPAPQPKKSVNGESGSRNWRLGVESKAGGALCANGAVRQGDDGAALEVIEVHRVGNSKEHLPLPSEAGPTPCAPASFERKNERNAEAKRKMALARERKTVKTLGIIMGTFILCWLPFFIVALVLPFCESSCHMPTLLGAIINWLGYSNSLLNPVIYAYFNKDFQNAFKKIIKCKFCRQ

[5] = target: 5-HT1E receptor (Homo sapiens, UniProt P28566)
[6] = target: 5-HT2B receptor (Homo sapiens, UniProt P41595)
[7] = target: 5-HT7 receptor (Homo sapiens, UniProt P34969)
[8] = target: 5-HT2A receptor (Homo sapiens, UniProt P28223)
[9] = target: T3, 5-HT2C receptor (Homo sapiens, UniProt P28335)
T3 sequence (P28335 33-458): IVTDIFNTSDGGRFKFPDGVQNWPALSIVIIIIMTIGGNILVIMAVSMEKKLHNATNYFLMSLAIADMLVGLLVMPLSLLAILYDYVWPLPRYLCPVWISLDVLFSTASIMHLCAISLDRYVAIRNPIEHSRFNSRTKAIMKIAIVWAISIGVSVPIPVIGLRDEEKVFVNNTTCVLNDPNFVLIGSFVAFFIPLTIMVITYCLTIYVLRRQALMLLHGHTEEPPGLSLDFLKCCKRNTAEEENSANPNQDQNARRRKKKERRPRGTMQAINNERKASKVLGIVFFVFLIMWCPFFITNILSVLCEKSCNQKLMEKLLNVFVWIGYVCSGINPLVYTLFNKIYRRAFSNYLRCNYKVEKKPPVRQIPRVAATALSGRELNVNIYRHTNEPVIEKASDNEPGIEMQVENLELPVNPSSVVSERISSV

[10] = tested on: 5-HT3 receptor
[11] = target: 5-HT4 receptor (Homo sapiens, UniProt Q13639)
[12] = target: 5-HT5A receptor (Homo sapiens, UniProt P47898)
[13] = target: 5-HT6 receptor (Homo sapiens, UniProt P50406)
[14] = tested on: adrenergic alpha1 receptors
[15] = tested on: adrenergic alpha2 receptors
[16] = tested on: adrenergic beta receptors
[17] = target: dopaminergic D1 receptors (Homo sapiens, UniProt P21728)
[18] = target: dopaminergic D2 receptors (Homo sapiens, UniProt P14416)
[19] = tested on: muscarinic receptors
[20] = tested on: opioid receptors

5-HT2B receptor, sequence (P41595 whole entry): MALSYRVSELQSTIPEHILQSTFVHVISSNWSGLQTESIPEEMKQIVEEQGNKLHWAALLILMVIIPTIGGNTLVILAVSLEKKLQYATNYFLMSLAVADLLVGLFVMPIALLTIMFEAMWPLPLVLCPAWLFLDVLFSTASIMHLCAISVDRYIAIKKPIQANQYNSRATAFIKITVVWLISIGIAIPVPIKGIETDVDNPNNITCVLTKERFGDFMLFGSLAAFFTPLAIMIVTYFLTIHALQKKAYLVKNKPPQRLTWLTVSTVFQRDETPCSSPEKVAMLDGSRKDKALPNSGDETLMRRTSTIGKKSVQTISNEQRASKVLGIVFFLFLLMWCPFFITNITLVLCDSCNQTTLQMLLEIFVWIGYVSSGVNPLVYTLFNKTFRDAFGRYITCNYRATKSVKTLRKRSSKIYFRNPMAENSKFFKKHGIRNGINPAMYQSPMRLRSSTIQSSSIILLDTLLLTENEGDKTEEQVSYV
5-HT1D receptor, sequence (P28221 whole entry): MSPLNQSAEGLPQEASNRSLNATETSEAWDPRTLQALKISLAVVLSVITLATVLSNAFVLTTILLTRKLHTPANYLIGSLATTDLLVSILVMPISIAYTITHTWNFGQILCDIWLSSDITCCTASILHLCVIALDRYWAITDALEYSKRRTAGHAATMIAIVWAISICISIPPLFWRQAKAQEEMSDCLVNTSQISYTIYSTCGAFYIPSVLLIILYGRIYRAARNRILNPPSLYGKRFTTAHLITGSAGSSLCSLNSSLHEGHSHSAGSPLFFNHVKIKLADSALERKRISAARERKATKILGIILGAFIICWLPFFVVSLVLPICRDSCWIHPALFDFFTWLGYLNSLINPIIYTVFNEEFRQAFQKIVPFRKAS
5-HT5A receptor, sequence (P47898 whole entry): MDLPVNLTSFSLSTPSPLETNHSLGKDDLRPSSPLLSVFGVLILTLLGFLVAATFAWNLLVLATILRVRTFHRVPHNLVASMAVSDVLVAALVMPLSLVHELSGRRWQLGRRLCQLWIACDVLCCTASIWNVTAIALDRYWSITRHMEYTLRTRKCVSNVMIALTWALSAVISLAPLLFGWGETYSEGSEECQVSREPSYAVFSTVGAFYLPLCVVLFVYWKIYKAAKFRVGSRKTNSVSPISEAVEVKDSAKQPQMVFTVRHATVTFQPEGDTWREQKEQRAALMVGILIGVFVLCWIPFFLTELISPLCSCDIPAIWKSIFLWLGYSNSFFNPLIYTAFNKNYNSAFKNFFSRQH
5-HT1E receptor, sequence (P28566 whole entry): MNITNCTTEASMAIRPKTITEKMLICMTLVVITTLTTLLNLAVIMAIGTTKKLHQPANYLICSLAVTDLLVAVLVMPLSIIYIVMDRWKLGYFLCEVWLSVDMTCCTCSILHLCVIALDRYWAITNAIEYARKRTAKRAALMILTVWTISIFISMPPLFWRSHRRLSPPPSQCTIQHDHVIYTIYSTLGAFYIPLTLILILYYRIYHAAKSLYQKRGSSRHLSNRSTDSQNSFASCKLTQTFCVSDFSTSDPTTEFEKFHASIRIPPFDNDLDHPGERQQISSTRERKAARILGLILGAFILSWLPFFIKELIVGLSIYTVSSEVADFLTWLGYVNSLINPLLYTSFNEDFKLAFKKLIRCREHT
dopaminergic D2 receptors, sequence (P14416 whole entry): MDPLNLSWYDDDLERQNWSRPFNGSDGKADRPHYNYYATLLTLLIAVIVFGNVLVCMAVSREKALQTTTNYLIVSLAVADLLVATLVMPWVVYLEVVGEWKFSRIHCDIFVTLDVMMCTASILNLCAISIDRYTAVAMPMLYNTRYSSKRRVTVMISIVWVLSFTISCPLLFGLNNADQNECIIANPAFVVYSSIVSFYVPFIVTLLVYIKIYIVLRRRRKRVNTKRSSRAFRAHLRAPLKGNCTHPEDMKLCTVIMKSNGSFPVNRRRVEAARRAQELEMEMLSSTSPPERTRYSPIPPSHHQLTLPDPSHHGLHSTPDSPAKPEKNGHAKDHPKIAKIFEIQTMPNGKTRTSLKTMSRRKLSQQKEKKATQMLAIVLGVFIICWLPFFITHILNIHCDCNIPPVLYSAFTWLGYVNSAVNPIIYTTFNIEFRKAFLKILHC
5-HT2A receptor, sequence (P28223 whole entry): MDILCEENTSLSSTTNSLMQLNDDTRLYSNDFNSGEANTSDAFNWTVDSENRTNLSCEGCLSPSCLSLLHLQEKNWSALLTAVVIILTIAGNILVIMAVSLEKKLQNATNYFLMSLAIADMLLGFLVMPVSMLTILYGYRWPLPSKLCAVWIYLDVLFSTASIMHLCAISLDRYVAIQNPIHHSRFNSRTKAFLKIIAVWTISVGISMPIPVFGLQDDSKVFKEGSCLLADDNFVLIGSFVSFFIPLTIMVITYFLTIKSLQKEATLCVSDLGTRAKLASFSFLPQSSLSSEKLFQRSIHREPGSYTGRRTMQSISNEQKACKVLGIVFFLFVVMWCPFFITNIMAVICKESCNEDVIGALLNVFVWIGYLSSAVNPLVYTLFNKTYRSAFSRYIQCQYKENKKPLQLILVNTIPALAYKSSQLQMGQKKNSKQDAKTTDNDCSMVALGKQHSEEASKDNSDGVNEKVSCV
5-HT7 receptor, sequence (P34969 whole entry): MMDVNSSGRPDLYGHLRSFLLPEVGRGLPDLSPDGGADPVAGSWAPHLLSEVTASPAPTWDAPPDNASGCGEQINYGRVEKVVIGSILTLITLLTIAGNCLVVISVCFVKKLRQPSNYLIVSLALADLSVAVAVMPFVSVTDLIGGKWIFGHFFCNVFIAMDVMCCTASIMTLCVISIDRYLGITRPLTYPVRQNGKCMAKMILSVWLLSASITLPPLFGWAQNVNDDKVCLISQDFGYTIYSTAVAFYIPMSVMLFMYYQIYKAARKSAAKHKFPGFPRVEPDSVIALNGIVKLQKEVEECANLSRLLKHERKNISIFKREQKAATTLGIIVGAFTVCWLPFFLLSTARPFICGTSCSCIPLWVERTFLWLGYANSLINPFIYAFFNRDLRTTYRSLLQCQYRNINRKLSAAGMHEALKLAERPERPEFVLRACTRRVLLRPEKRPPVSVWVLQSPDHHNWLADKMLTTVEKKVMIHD
5-HT1B receptor, sequence (P28222 whole entry): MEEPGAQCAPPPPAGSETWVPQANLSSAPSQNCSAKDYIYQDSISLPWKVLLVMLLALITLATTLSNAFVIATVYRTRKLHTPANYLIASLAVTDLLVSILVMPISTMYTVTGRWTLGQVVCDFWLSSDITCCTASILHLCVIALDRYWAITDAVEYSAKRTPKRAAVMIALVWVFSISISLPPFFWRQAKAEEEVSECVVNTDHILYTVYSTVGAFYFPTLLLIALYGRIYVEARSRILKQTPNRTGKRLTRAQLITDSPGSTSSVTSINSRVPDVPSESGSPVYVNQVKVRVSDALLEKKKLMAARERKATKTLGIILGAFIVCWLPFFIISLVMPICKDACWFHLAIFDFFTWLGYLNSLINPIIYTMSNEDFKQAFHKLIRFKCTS
5-HT6 receptor, sequence (P50406 whole entry): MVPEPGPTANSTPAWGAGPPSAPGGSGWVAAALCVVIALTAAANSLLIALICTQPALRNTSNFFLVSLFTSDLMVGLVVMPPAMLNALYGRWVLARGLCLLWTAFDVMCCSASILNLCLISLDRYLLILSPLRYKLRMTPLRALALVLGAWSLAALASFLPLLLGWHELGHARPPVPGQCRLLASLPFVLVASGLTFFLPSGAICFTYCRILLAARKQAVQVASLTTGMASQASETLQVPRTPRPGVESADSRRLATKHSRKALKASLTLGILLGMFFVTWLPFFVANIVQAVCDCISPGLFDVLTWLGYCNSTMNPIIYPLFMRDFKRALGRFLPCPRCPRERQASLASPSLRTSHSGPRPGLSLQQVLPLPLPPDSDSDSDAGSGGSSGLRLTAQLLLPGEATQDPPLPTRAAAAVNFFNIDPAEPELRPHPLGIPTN
dopaminergic D1 receptors, sequence (P21728 whole entry): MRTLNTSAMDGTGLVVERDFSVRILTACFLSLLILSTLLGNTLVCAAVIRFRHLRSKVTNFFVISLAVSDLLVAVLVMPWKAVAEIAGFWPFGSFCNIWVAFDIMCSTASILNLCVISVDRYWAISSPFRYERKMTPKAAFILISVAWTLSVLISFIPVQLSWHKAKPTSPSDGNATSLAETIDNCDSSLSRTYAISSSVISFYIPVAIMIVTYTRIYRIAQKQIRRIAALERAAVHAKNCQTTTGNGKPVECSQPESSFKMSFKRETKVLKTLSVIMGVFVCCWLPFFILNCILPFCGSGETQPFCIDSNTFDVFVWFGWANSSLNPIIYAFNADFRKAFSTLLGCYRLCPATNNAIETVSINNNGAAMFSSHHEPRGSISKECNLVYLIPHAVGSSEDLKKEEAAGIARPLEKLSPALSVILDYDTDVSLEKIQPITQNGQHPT
5-HT4 receptor, sequence (Q13639 whole entry): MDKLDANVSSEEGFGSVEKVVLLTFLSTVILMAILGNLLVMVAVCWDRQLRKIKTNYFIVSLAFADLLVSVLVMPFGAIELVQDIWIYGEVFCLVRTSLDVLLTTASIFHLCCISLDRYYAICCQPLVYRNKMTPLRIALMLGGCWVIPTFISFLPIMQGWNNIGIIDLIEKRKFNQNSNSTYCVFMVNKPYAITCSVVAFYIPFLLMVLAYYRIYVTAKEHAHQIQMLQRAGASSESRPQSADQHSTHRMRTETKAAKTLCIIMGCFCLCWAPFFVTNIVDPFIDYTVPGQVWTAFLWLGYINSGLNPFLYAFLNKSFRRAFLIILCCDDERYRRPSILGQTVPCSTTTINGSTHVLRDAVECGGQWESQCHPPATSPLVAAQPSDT

- affinity [1]: high affinity
- affinity [2]: high affinity
- affinity [3]: high affinity
- affinity [4]: modest affinity
- affinity [5]: modest affinity
- affinity [6]: modest affinity
- affinity [7]: modest affinity
- affinity [8]: little or no affinity
- affinity [9]: little or no affinity
- affinity [10]: little or no affinity
- affinity [11]: little or no affinity
- affinity [12]: little or no affinity
- affinity [13]: little or no affinity
SMILES: CN1CCC[C@@H]1Cc1c[nH]c2ccc(CCS(=O)(=O)c3ccccc3)cc12 [Eletriptan, 3-(N-methyl-2(R)-pyrrolidinylmethyl)-5-(2-phenylsulphonylethyl)-1H-indole]
- affinity or pharmacological activity [14]: no significant affinity or pharmacological activity
- affinity or pharmacological activity [15]: no significant affinity or pharmacological activity
- affinity or pharmacological activity [16]: no significant affinity or pharmacological activity
- affinity or pharmacological activity [17]: no significant affinity or pharmacological activity
- affinity or pharmacological activity [18]: no significant affinity or pharmacological activity
- affinity or pharmacological activity [19]: no significant affinity or pharmacological activity
- affinity or pharmacological activity [20]: no significant affinity or pharmacological activity
